Laboratory results as given in patent US20240033224A1, “ENTERIC-COATED PELLET, METHOD FOR PREPARING SAME AND FORMULATION COMPRISING SAME” (LIVZON PHARMACEUTICAL GROUP INC., priority 2020, published 2024).

Assay: Stability of prazole starting materials in phosphate buffer media at pH 6.8 and 8.0
Method: Phosphate buffer media at pH 6.8 and 8.0 containing 0.5% w/w of sodium dodecyl sulfate were prepared, added into dissolution cups, with 1000 mL per cup. 0.5 mg of each of ilaprazole, omeprazole magnesium, esomeprazole magnesium, rabeprazole sodium, pantoprazole and lansoprazole was weighed and added into the dissolution cups, stirred at 150 rpm by a paddle method to ensure that the prazole starting materials sank into the media and dissolved therein. 5 mL of each of the samples was collected at 15 min, 30 min, 45 min and 60 min respectively, and added to 20 mL of sodium hydroxide stabilization medium, and then the volume was made up to 50 mL with the mobile phase.
The collected sample content in the media was determined according to the determination method of omeprazole magnesium, esomeprazole magnesium, rabeprazole sodium, pantoprazole sodium and lansoprazole in the Chinese Pharmacopoeia (Volume II, 2015 Edition) so as to determine the stability of the prazoles in the media at pH 6.8 and 8.0.

[1] = buffer, 0.25 h, 0.5 µg/mL, pH 6.8
[2] = buffer, 0.25 h, 0.5 µg/mL, pH 8
[3] = buffer, 0.5 h, 0.5 µg/mL, pH 6.8
[4] = buffer, 0.75 h, 0.5 µg/mL, pH 6.8
[5] = buffer, 0.75 h, 0.5 µg/mL, pH 8

In the case of `COc1ccnc(C[S+]([O-])c2nc3cc(-n4cccc4)ccc3[nH]2)c1C` (stereo not drawn) [Ilaprazole, ilaprazole], the “remaining amount after the degradation” value (buffer, 0 h, 0.5 µg/mL, pH 6.8) is reported as 100.0%, the “remaining amount after the degradation” value (buffer, 0 h, 0.5 µg/mL, pH 8) is reported as 100.0% and the “remaining amount after the degradation” value [1] is reported as 59.7%. For the same compound, the “remaining amount after the degradation” value [2] was 94.3%, the “remaining amount after the degradation” value [3] was 42.7% and the “remaining amount after the degradation” value (buffer, 0.5 h, 0.5 µg/mL, pH 8) was 91.5%. For the same compound, the “remaining amount after the degradation” value [4] was 29.4%, the “remaining amount after the degradation” value [5] was 88.6% and the “remaining amount after the degradation” value (buffer, 1 h, 0.5 µg/mL, pH 6.8) was 20.7%. For the same compound, the “remaining amount after the degradation” value (buffer, 1 h, 0.5 µg/mL, pH 8) was 84.6% and the “stability in medium at pH 6.8 compared between prazoles” value (pH 6.8) was “the worst”.

With `COCCCOc1ccnc(C[S+]([O-])c2nc3ccccc3[nH]2)c1C` (stereo not drawn) [Rabeprazole sodium, rabeprazole sodium] the “remaining amount after the degradation” value (buffer, 0 h, 0.5 µg/mL, pH 6.8) was 100.0%, the “remaining amount after the degradation” value (buffer, 0 h, 0.5 µg/mL, pH 8) was 100.0% and the “remaining amount after the degradation” value [1] was 70.3%. The “remaining amount after the degradation” value [2] was 97.3%, the “remaining amount after the degradation” value [3] was 51.5% and the “remaining amount after the degradation” value (buffer, 0.5 h, 0.5 µg/mL, pH 8) was 93.5%. For the same compound, the “remaining amount after the degradation” value [4] was 38.6%, the “remaining amount after the degradation” value [5] was 90.6% and the “remaining amount after the degradation” value (buffer, 1 h, 0.5 µg/mL, pH 6.8) was 24.6%. For the same compound, the “remaining amount after the degradation” value (buffer, 1 h, 0.5 µg/mL, pH 8) was 88.5%.

With `Cc1c(OCC(F)(F)F)ccnc1C[S+]([O-])c1nc2ccccc2[nH]1` (stereo not drawn) [Lansoprazole, lansoprazole] the “remaining amount after the degradation” value (buffer, 0 h, 0.5 µg/mL, pH 6.8) was 100.0%, the “remaining amount after the degradation” value (buffer, 0 h, 0.5 µg/mL, pH 8) was 100.0% and the “remaining amount after the degradation” value [1] was 85.7%. The “remaining amount after the degradation” value [2] was 98.7%, the “remaining amount after the degradation” value [3] was 70.2% and the “remaining amount after the degradation” value (buffer, 0.5 h, 0.5 µg/mL, pH 8) was 96.2%. The “remaining amount after the degradation” value [4] was 53.6%, the “remaining amount after the degradation” value [5] was 95.3% and the “remaining amount after the degradation” value (buffer, 1 h, 0.5 µg/mL, pH 6.8) was 38.6%. For the same compound, the “remaining amount after the degradation” value (buffer, 1 h, 0.5 µg/mL, pH 8) was 93.5%.

In the case of `COc1ccc2[n-]c([S+]([O-])Cc3ncc(C)c(OC)c3C)nc2c1.COc1ccc2[n-]c([S+]([O-])Cc3ncc(C)c(OC)c3C)nc2c1.[Mg+2]` (stereo not drawn) [Esomeprazole magnesium, esomeprazole magnesium], the “remaining amount after the degradation” value (medium at pH 6.8, 15 min) is reported as 89.6%, the “remaining amount after the degradation” value (medium at pH 6.8, 30 min) is reported as 70.9% and the “remaining amount after the degradation” value (medium at pH 6.8, 45 min) is reported as 56.0%. The “remaining amount after the degradation” value (medium at pH 6.8, 60 min) was 41.4%, the “remaining amount after the degradation” value (medium at pH 8.0, 15 min) was 99.2% and the “remaining amount after the degradation” value (medium at pH 8.0, 30 min) was 98.6%. For the same compound, the “remaining amount after the degradation” value (medium at pH 8.0, 45 min) was 97.6%, the “remaining amount after the degradation” value (medium at pH 8.0, 60 min) was 96.4% and the “stability in medium at pH 6.8 compared between prazoles” value (pH 6.8) was “the best”.

In the case of `COc1ccc2[n-]c([S+]([O-])Cc3ncc(C)c(OC)c3C)nc2c1.COc1ccc2[n-]c([S+]([O-])Cc3ncc(C)c(OC)c3C)nc2c1.[Mg+2]` (stereo not drawn) [Omeprazole magnesium, omeprazole magnesium], the “remaining amount after the degradation” value (buffer, 0 h, pH 6.8) is reported as 100.0%, the “remaining amount after the degradation” value (buffer, 0 h, pH 8) is reported as 100.0% and the “remaining amount after the degradation” value (buffer, 0.25 h, pH 6.8) is reported as 81.2%. For the same compound, the “remaining amount after the degradation” value (buffer, 0.25 h, pH 8) was 98.2%, the “remaining amount after the degradation” value (buffer, 0.5 h, pH 6.8) was 66.7% and the “remaining amount after the degradation” value (buffer, 0.5 h, pH 8) was 95.4%. The “remaining amount after the degradation” value (buffer, 0.75 h, pH 6.8) was 47.4%, the “remaining amount after the degradation” value (buffer, 0.75 h, pH 8) was 96.3% and the “remaining amount after the degradation” value (buffer, 1 h, pH 6.8) was 29.2%. For the same compound, the “remaining amount after the degradation” value (buffer, 1 h, pH 8) was 91.2%.

In the case of `COc1ccnc(C[S+]([O-])c2nc3ccc(OC(F)F)cc3[nH]2)c1OC` (stereo not drawn) [Pantoprazole sodium, pantoprazole sodium], the “remaining amount after the degradation” value (buffer, 0 h, 0.5 µg/mL, pH 6.8) is reported as 100.0%, the “remaining amount after the degradation” value (buffer, 0 h, 0.5 µg/mL, pH 8) is reported as 100.0% and the “remaining amount after the degradation” value [1] is reported as 83.6%. For the same compound, the “remaining amount after the degradation” value [2] was 98.6%, the “remaining amount after the degradation” value [3] was 65.9% and the “remaining amount after the degradation” value (buffer, 0.5 h, 0.5 µg/mL, pH 8) was 95.9%. The “remaining amount after the degradation” value [4] was 50.2%, the “remaining amount after the degradation” value [5] was 92.2% and the “remaining amount after the degradation” value (buffer, 1 h, 0.5 µg/mL, pH 6.8) was 35.4%. For the same compound, the “remaining amount after the degradation” value (buffer, 1 h, 0.5 µg/mL, pH 8) was 91.4%.
